Experimental data reported in paper PMC2363627 (British Journal of Cancer, 2001).
Several values for one entry are separate records, joined by “and”; a condition that tells them apart may be missing. Identical values can stand only once. Entries after “also recorded” stand apart in the source; their conditions may differ. One block for each compound: values may come before it.

Assays:
[1] = Plasma pharmacokinetics of oral paclitaxel 120 mg/m2 combined with 1000 mg oral GF120918 in cancer patients (HPLC, non-compartmental); conditions: for mean AUCt of paclitaxel metabolite: after oral paclitaxel 120 mg/m2 + GF120918, n = 5, mean SD
Excerpt: (§1) Furthermore, oral administration may enable development of chronic treatment schedules resulting in sustained plasma concentrations above a pharmacological relevant threshold level. […] PATIENTS AND METHODS Patient population Patients with a histologically confirmed cancer refractory to current therapies were eligible for the study. Previous radiotherapy or chemotherapy other than taxoid therapy was allowed, provided that the last treatment was at least four weeks prior to study entry and any resulting toxicities were resolved. […] Patients were not eligible if they suffered from uncontrolled infec- tious disease, neurologic disease, bowel obstruction or sympto- matic brain metastases. Other exclusion criteria were concomitant use of known P-gp inhibitors and chronic use of H2-receptor antagonists or proton pump inhibitors. The study protocol was approved by the Medical Ethics Committee of the Institute and all patients gave written informed consent. […] The oral and i.v. course were randomized. […] Patient evaluation Pretreatment evaluation included a complete medical history and complete physical examination. Before each course, an interim history including concomitant medications taken, toxicities and performance status were registered and a physical examination was performed. Haematology was checked twice weekly after course 1 and 2 and weekly after subsequent courses. Blood chemistries including liver and renal function, serum electrolytes, total protein and albumin and glucose levels were checked weekly. All toxicities observed were graded according to the National Cancer Institute Common Toxicity Criteria (NCI CTC) (National Cancer Institute, 1988). Dose-limiting toxicities (DLT) were defined as grade 4 granulocytopenia of a duration of > 5 days, grade 4 thrombocytopenia of any duration or any grade 3/4 non- haematological toxicity except untreated nausea and vomiting. Tumour measurements were performed every other cycle, but initially after the first 2 i.v. courses. Responses were evaluated according to the WHO criteria (World Health Organization, 1979). Sample collection and analysis Blood samples for pharmacokinetic analyses were collected during course 1 and course 2. […] Blood samples were centrifuged, plasma was separated and samples were immediately stored at -20C until analysis. […] Blood samples were centrifuged at 4C, plasma was separated and samples were imme- diately stored at -20C until analysis. […] Pharmacokinetic analysis Non-compartmental pharmacokinetic methods were applied to process the results (Gibaldi and Perrier, 1982). […] The time above the threshold concentrations of 0.05 M and 0.1 M (T > 0.05 M, T > 0.1 M) was determined using linear interpola- tion. […] Statistical analysis of the data was performed using the nonparametric Mann-Whitney U-test. The a priori level of signifi- cance was P = 0.05.

[2] = Plasma pharmacokinetics of oral paclitaxel 120 mg/m2 combined with 15 mg kg-1 cyclosporin A in patients (previous study at the Institute); format: in vivo, human; conditions: for mean AUCt of paclitaxel metabolite: after oral paclitaxel + CsA, n = 3, mean SD, not published before
Excerpt: as §1, with “The a priori level of signifi- cance was P = 0.05.” left out

P-gp = tested on: P-gp; parameters: method as in Hyafil et al, 1993; conditions: ref Hyafil et al, 1993; cited from earlier work
[3] = Plasma pharmacokinetics of GF120918 after a single 1000 mg oral dose in cancer patients (HPLC); format: in vivo, human; conditions: 1000 mg oral GF120918; mean SD
Excerpt: (§2) Furthermore, oral administration may enable development of chronic treatment schedules resulting in sustained plasma concentrations above a pharmacological relevant threshold level. […] PATIENTS AND METHODS Patient population Patients with a histologically confirmed cancer refractory to current therapies were eligible for the study. Previous radiotherapy or chemotherapy other than taxoid therapy was allowed, provided that the last treatment was at least four weeks prior to study entry and any resulting toxicities were resolved. […] Patients were not eligible if they suffered from uncontrolled infec- tious disease, neurologic disease, bowel obstruction or sympto- matic brain metastases. Other exclusion criteria were concomitant use of known P-gp inhibitors and chronic use of H2-receptor antagonists or proton pump inhibitors. The study protocol was approved by the Medical Ethics Committee of the Institute and all patients gave written informed consent. […] The oral and i.v. course were randomized. […] Patient evaluation Pretreatment evaluation included a complete medical history and complete physical examination. […] Responses were evaluated according to the WHO criteria (World Health Organization, 1979). […] The time above the threshold concentrations of 0.05 M and 0.1 M (T > 0.05 M, T > 0.1 M) was determined using linear interpola- tion. […]

[4] = Plasma pharmacokinetics of i.v. paclitaxel 175 mg/m2 as 3-hour infusion in cancer patients (limited sampling model); format: in vivo, human; conditions: for AUC: human, plasma, iv
Excerpt: as §1

[5] = tested on: histologically confirmed cancer refractory to current therapies; assay: Tumour response according to WHO criteria; format: in vivo, human; conditions: six patients; one oral course + GF120918, subsequent i.v. paclitaxel courses
Excerpt: as §2

[6] = parameters: method as in Malingre et al, 2000; conditions: ref Malingre et al, 2000, cited from earlier work
[7] = Toxicity in patients graded by NCI Common Toxicity Criteria; conditions: one course oral paclitaxel 120 mg/m2 + 1000 mg GF120918
Excerpt: as §2

[8] = cited from earlier work
[9] = individual patients 1-6, oral 120 mg/m2 + GF120918 1000 mg

mean AUCt of paclitaxel metabolite [1]: 0.36 µM·h
mean AUCt of paclitaxel metabolite [2]: 0.48 µM·h
SMILES: CC(=O)O[C@H]1C(=O)[C@@]2(C)[C@H]([C@H](OC(=O)c3ccccc3)[C@]3(O)C[C@H](OC(=O)[C@H](O)[C@@H](NC(=O)c4ccccc4)c4ccc(O)cc4)C(C)=C1C3(C)C)[C@]1(OC(C)=O)CO[C@@H]1C[C@@H]2O [3p-hydroxypaclitaxel]

mean AUCt of paclitaxel metabolite [1]: 0.24 µM·h
mean AUCt of paclitaxel metabolite [2]: 0.88 µM·h
SMILES: CC(=O)O[C@H]1C(=O)[C@@]2(C)[C@H]([C@H](OC(=O)c3ccccc3)[C@]3(O)C[C@H](OC(=O)[C@H](O)[C@@H](NC(=O)c4ccccc4)c4ccc(O)cc4)C(C)=C1C3(C)C)[C@]1(OC(C)=O)CO[C@@H]1[C@@H](O)[C@@H]2O [6,3p-dihydroxypaclitaxel]

mean AUCt of paclitaxel metabolite [1]: 0.4 µM·h
AUCt ratio 6-hydroxypaclitaxel/3p-hydroxypaclitaxel ([1]; oral paclitaxel + GF120918 (0.40/0.36)): 1.1
mean AUCt of paclitaxel metabolite [2]: 1.69 µM·h
AUCt ratio 6-hydroxypaclitaxel/3p-hydroxypaclitaxel ([2]; oral paclitaxel + CsA (1.69/0.48)): 3.5
SMILES: CC(=O)O[C@H]1C(=O)[C@@]2(C)[C@H]([C@H](OC(=O)c3ccccc3)[C@]3(O)C[C@H](OC(=O)[C@H](O)[C@@H](NC(=O)c4ccccc4)c4ccccc4)C(C)=C1C3(C)C)[C@]1(OC(C)=O)CO[C@@H]1[C@@H](O)[C@@H]2O [6-hydroxypaclitaxel]

mean maximum concentration of GF120918 [3]: 434 267 ng ml-1
SMILES: COc1cc2c(cc1OC)CN(CCc1ccc(NC(=O)c3cccc4c(=O)c5cccc(OC)c5[nH]c34)cc1)CC2 [GF120918]
concentration at which active in in vitro models of P-gp inhibition (P-gp): around 20 nM

SMILES: CC(=O)O[C@H]1C(=O)[C@@]2(C)[C@H]([C@H](OC(=O)c3ccccc3)[C@]3(O)C[C@H](OC(=O)[C@H](O)[C@@H](NC(=O)c4ccccc4)c4ccccc4)C(C)=C1C3(C)C)[C@]1(OC(C)=O)CO[C@@H]1C[C@@H]2O [paclitaxel]
T > 0.1 µM, oral paclitaxel (time above 0.1 µM) [1, 9]: 8.8 h and 15.3 h and 9.6 h and 2.6 h and 4.2 h and 4.3 h
T > 0.05 M, oral paclitaxel (time above 0.05 M) [1, 9]: 15.1 h and 25.0 h and 23.9 h and 3.9 h and 6.1 h and 6.7 h
AUC ([4]; 175 mg/m2, AUC, i.v. paclitaxel, individual patients 1-6, 175 mg/m2, 3-hour infusion): 18.6 µM·h
AUC ([4]; 175 mg/m2, AUC, i.v. paclitaxel, mean SD, n = 6, 175 mg/m2, 3-hour infusion): 15.9 µM·h
AUC ([4]; 175 mg/m2, mean AUC of paclitaxel, i.v. paclitaxel 175 mg/m2, 3-hour infusion, mean ± SD): 15.9 µM·h
T > 0.1 µM, i.v. paclitaxel ([4]; individual patients 1-6, 175 mg/m2, 3-hour infusion): 22.3 h and 12.1 h and 20.9 h and 13.8 h and 16.6 h and 13.9 h
T > 0.1 µM, i.v. paclitaxel ([4]; mean, n = 6 (SD 4.2 printed in separate line), 175 mg/m2, 3-hour infusion): 16.6 h
tumour responses [5]: no tumour responses were observed
mean AUC of paclitaxel ([6]; oral paclitaxel 120 mg/m2 + CsA, previously performed study, mean ± SD): 2.55 ± 2.29 µM·h
Cmax ([6]; read-out: Cmax, oral paclitaxel, oral 120 mg/m2 + 15 mg kg-1 cyclosporin A, n = 3, mean SD): 310 nM
tolerability of the oral combination of paclitaxel with GF120918 [7]: well tolerated; also recorded: very well tolerated
oral bioavailability of paclitaxel ([8]; background statement, no P-gp blocker, no reference given): < 10%
increase in oral bioavailability of paclitaxel by co-administration of CsA ([8]; cancer patients, oral paclitaxel + CsA, ref Meerum Terwogt et al, 1998, 1999): at least 7 fold
bioavailability of single agent oral paclitaxel ([8]; oral 60 mg/m2 without P-gp blocker, vs i.v. 175 mg/m2, ref Meerum Terwogt et al, 1998, 1999): 4%
apparent bioavailability of oral paclitaxel as a single agent ([8]; using i.v. paclitaxel data at 100 mg/m2 and 125 mg/m2 (Huizing et al, 1997), ref Meerum Terwogt et al, 1999): 6%
